Data taken from patent US10588317B2, “Isoxazoline-substituted benzamides and analogues as insecticides” (priority 2015, dated 2020).

Columns and labels:
Type in all cases: in vivo
Thrips tabaci = Thrips tabaci (onion thrips): feeding/contact activity; settings: 144 h, application rate 200 ppm, Thrips population of mixed ages, 6 days after infestation, read-out: mortality
Procedure: Sunflower leaf discs were placed on agar in 24-well microtiter plates and sprayed with aqueous test solutions prepared from 10'000 ppm DMSO stock solutions. After drying the leaf discs were infested with a Thrips population of mixed ages. The samples were assessed for mortality 6 days after infestation.

Myzus persicae = Myzus persicae (green peach aphid): feeding/contact activity; settings: 144 h, application rate 200 ppm, aphid population of mixed ages, 6 days after infestation, read-out: mortality
Procedure: Sunflower leaf discs were placed onto agar in a 24-well microtiter plate and sprayed with aqueous test solutions prepared from 10'000 ppm DMSO stock solutions. After drying, the leaf discs were infested with an aphid population of mixed ages. The samples were assessed for mortality 6 days after infestation.

Plutella xylostella = Plutella xylostella (diamond back moth), artificial diet; settings: 120 h, application rate 200 ppm, L2 larvae, 5 days after infestation, read-out: effect in at least one of the two categories (mortality or growth inhibition)
How it was run: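 L2 larvae (10-15 per well) fed on compound-treated, dried artificial diet; test solutions diluted in water from 10'000 ppm DMSO stocks. Readout 5 days post-infestation as mortality or growth inhibition versus untreated diet, with at least 80% effect at 200 ppm as threshold.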

Diabrotica balteata = Diabrotica balteata (corn root worm), sprayed maize sprouts; settings: 96 h, application rate 200 ppm, L2 larvae, 4 days after infestation, read-out: effect in at least one of the two categories (mortality or growth inhibition)
How it was run: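 Read-out at 4 days post-infestation: mortality and growth inhibition relative to untreated samples. Test solutions (200 ppm, from DMSO stocks) were sprayed onto agar-held maize sprouts, which after drying received 6–10 L2 larvae per well.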

Spodoptera littoralis [1] = experiment: Spodoptera littoralis (Egyptian cotton leaf worm), sprayed cotton leaf discs; settings: foliar, 72 h, application rate 200 ppm, L1 larvae, 3 days after infestation, read-out: control (mortality, anti-feeding effect, growth inhibition)
How it was run: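 Five first-instar larvae placed on dried cotton leaf discs (on agar) previously sprayed with aqueous dilutions of 10'000 ppm DMSO stocks. Scored at 3 days against untreated discs for mortality, feeding inhibition and growth inhibition; any category above untreated counts as control.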

Spodoptera littoralis [2] = experiment: Spodoptera littoralis (Egyptian cotton leaf worm), uptake by lettuce roots from agar; settings: 144 h, read-out: effect in at least one of the three categories (mortality, anti-feeding, or growth inhibition); for percent effect (mortality, anti-feeding or growth inhibition) at 12.5 ppm: test rate 12.5 ppm, eggs, 6 days after infestation
Text: Test compounds were applied by pipette from 10'000 ppm DMSO stock solutions into 24-well plates and mixed with agar. Lettuce seeds were placed onto the agar and the multi well plate was closed by another plate which contained also agar. After 7 days the compound was absorbed by the roots and the lettuce grew into the lid plate. The lettuce leaves were then cut off into the lid plate. Spodoptera eggs were pipetted through a plastic stencil onto a humid gel blotting paper and the lid plate was closed with it. The samples were assessed for mortality, anti-feedant effect and growth inhibition in comparison to untreated samples 6 days after infestation.
The following compounds gave an effect of at least 80% in at least one of the three categories (mortality, anti-feeding, or growth inhibition) at a test rate of 12.5 ppm: […]

Tetranychus urticae = Tetranychus urticae (two-spotted spider mite): feeding/contact activity; settings: 192 h, application rate 200 ppm, mixed population (mobile stages), 8 days after infestation, read-out: mortality
Procedure: Bean leaf discs on agar in 24-well microtiter plates were sprayed with aqueous test solutions prepared from 10'000 ppm DMSO stock solutions. After drying the leaf discs were infested with a mite population of mixed ages. The samples were assessed for mortality on mixed population (mobile stages) 8 days after infestation.

Euschistus heros = Euschistus heros (neotropical brown stink bug), sprayed soybean leaves; settings: 120 h, application rate 200 ppm, N2 nymphs, 5 days after infestation, read-out: effect in at least one of the two categories (mortality or growth inhibition)
How it was run: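 Scored 5 days post-infestation versus untreated controls, for both mortality and growth inhibition: N2 nymphs placed on agar-mounted soybean leaves previously sprayed at 200 ppm with aqueous test solutions from DMSO stocks and left to dry.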

Cc1cc(C2=NO[C@@](c3cc(Cl)c(Cl)c(Cl)c3)(C(F)(F)F)C2)ccc1C(=O)NC1CON(S(=O)(=O)N(C)CC#N)C1 (stereo partly drawn) [Compound A87, N-[2-[cyanomethyl(methyl)sulfamoyl]isoxazolidin-4-yl]-2-methyl-4-[(5S)-5-(3,4,5-trichlorophenyl)-5-(trifluoromethyl)-4H-isoxazol-3-yl]benzamide]
≥ 80%: mortality at 200 ppm (Thrips tabaci) | mortality at 200 ppm (Myzus persicae) | percent effect (mortality or growth inhibition) at 200 ppm (Plutella xylostella) | percent effect (mortality or growth inhibition) at 200 ppm (Diabrotica balteata) | mortality at 200 ppm (Spodoptera littoralis [1]) | percent control (mortality, anti-feedant effect or growth inhibition) at 12.5 ppm (Spodoptera littoralis [2]) | mortality at 200 ppm (Tetranychus urticae) | percent effect (mortality or growth inhibition) at 200 ppm (Euschistus heros)

CCNS(=O)(=O)N1C[C@@H](NC(=O)c2ccc(C3=NO[C@@](c4cc(Cl)c(F)c(Cl)c4)(C(F)(F)F)C3)cc2C)CO1 [Compound A133, 4-[(5S)-5-(3,5-dichloro-4-fluoro-phenyl)-5-(trifluoromethyl)-4H-isoxazol-3-yl]-N-[(4R)-2-(ethylsulfamoyl)isoxazolidin-4-yl]-2-methyl-benzamide]
≥ 80%: mortality at 200 ppm (Thrips tabaci) | mortality at 200 ppm (Myzus persicae) | percent effect (mortality or growth inhibition) at 200 ppm (Plutella xylostella) | percent effect (mortality or growth inhibition) at 200 ppm (Diabrotica balteata) | mortality at 200 ppm (Spodoptera littoralis [1]) | percent control (mortality, anti-feedant effect or growth inhibition) at 12.5 ppm (Spodoptera littoralis [2]) | mortality at 200 ppm (Tetranychus urticae) | percent effect (mortality or growth inhibition) at 200 ppm (Euschistus heros)

CCNS(=O)(=O)N1C[C@@H](NC(=O)c2ccc(C3=NO[C@@](c4cc(Cl)cc(Cl)c4)(C(F)(F)F)C3)cc2Cl)CO1 [Compound A113, 2-chloro-4-[(5S)-5-(3,5-dichlorophenyl)-5-(trifluoromethyl)-4H-isoxazol-3-yl]-N-[(4R)-2-(ethylsulfamoyl)isoxazolidin-4-yl]benzamide]
≥ 80%: mortality at 200 ppm (Thrips tabaci) | mortality at 200 ppm (Myzus persicae) | percent effect (mortality or growth inhibition) at 200 ppm (Plutella xylostella) | percent effect (mortality or growth inhibition) at 200 ppm (Diabrotica balteata) | mortality at 200 ppm (Spodoptera littoralis [1]) | percent control (mortality, anti-feedant effect or growth inhibition) at 12.5 ppm (Spodoptera littoralis [2]) | mortality at 200 ppm (Tetranychus urticae) | percent effect (mortality or growth inhibition) at 200 ppm (Euschistus heros)

Cc1cc(C2=NO[C@@](c3cc(Br)cc(C(F)(F)F)c3)(C(F)(F)F)C2)ccc1C(=O)NC1CON(S(=O)(=O)N(C)C)C1 (some centres unmarked) [Compound A23]
≥ 80%: mortality at 200 ppm (Thrips tabaci) | mortality at 200 ppm (Myzus persicae) | percent effect (mortality or growth inhibition) at 200 ppm (Plutella xylostella) | percent effect (mortality or growth inhibition) at 200 ppm (Diabrotica balteata) | mortality at 200 ppm (Spodoptera littoralis [1]) | percent effect (mortality, anti-feeding or growth inhibition) at 12.5 ppm (Spodoptera littoralis [2]) | mortality at 200 ppm (Tetranychus urticae)

CCS(=O)(=O)N1CC(NC(=O)c2ccc(C3=NO[C@@](c4cc(Cl)c(F)c(Cl)c4)(C(F)(F)F)C3)cc2Cl)CO1 (stereo partly drawn) [Compound A25, 2-chloro-4-[(5S)-5-(3,5-dichloro-4-fluoro-phenyl)-5-(trifluoromethyl)-4H-isoxazol-3-yl]-N-(2-ethylsulfonylisoxazolidin-4-yl)benzamide]
≥ 80%: mortality at 200 ppm (Thrips tabaci) | mortality at 200 ppm (Myzus persicae) | percent effect (mortality or growth inhibition) at 200 ppm (Plutella xylostella) | percent effect (mortality or growth inhibition) at 200 ppm (Diabrotica balteata) | mortality at 200 ppm (Spodoptera littoralis [1]) | percent control (mortality, anti-feedant effect or growth inhibition) at 12.5 ppm (Spodoptera littoralis [2]) | mortality at 200 ppm (Tetranychus urticae)

Cc1cc(C2=NO[C@@](c3cc(Br)cc(C(F)(F)F)c3)(C(F)(F)F)C2)ccc1C(=O)NC1CON(S(C)(=O)=O)C1 (some centres unmarked) [Compound A16]
≥ 80%: mortality at 200 ppm (Thrips tabaci) | mortality at 200 ppm (Myzus persicae) | percent effect (mortality or growth inhibition) at 200 ppm (Plutella xylostella) | percent effect (mortality or growth inhibition) at 200 ppm (Diabrotica balteata) | mortality at 200 ppm (Spodoptera littoralis [1]) | percent effect (mortality, anti-feeding or growth inhibition) at 12.5 ppm (Spodoptera littoralis [2]) | mortality at 200 ppm (Tetranychus urticae)

CN(C)S(=O)(=O)N1CC(NC(=O)c2ccc(C3=NO[C@@](c4cc(Cl)c(F)c(Cl)c4)(C(F)(F)F)C3)cc2Cl)CO1 (some centres unmarked) [Compound A21]
≥ 80%: mortality at 200 ppm (Thrips tabaci) | mortality at 200 ppm (Myzus persicae) | percent effect (mortality or growth inhibition) at 200 ppm (Plutella xylostella) | percent effect (mortality or growth inhibition) at 200 ppm (Diabrotica balteata) | mortality at 200 ppm (Spodoptera littoralis [1]) | percent control (mortality, anti-feedant effect or growth inhibition) at 12.5 ppm (Spodoptera littoralis [2]) | mortality at 200 ppm (Tetranychus urticae)

CCS(=O)(=O)N1CC(NC(=O)c2ccc(C3=NO[C@@](c4cc(Cl)c(Cl)c(Cl)c4)(C(F)(F)F)C3)cc2Cl)CO1 (stereo partly drawn) [Compound A28, 2-chloro-N-(2-ethylsulfonylisoxazolidin-4-yl)-4-[(5S)-5-(3,4,5-trichlorophenyl)-5-(trifluoromethyl)-4H-isoxazol-3-yl]benzamide]
≥ 80%: mortality at 200 ppm (Thrips tabaci) | mortality at 200 ppm (Myzus persicae) | percent effect (mortality or growth inhibition) at 200 ppm (Plutella xylostella) | percent effect (mortality or growth inhibition) at 200 ppm (Diabrotica balteata) | mortality at 200 ppm (Spodoptera littoralis [1]) | percent control (mortality, anti-feedant effect or growth inhibition) at 12.5 ppm (Spodoptera littoralis [2]) | mortality at 200 ppm (Tetranychus urticae)

O=C(NC1CON(S(=O)(=O)C2CC2)C1)c1ccc(C2=NO[C@@](c3cc(Cl)c(Cl)c(Cl)c3)(C(F)(F)F)C2)cc1Cl (stereo partly drawn) [Compound A30, 2-chloro-N-(2-cyclopropylsulfonylisoxazolidin-4-yl)-4-[(5S)-5-(3,4,5-trichlorophenyl)-5-(trifluoromethyl)-4H-isoxazol-3-yl]benzamide]
≥ 80%: mortality at 200 ppm (Thrips tabaci) | mortality at 200 ppm (Myzus persicae) | percent effect (mortality or growth inhibition) at 200 ppm (Plutella xylostella) | percent effect (mortality or growth inhibition) at 200 ppm (Diabrotica balteata) | mortality at 200 ppm (Spodoptera littoralis [1]) | percent control (mortality, anti-feedant effect or growth inhibition) at 12.5 ppm (Spodoptera littoralis [2]) | mortality at 200 ppm (Tetranychus urticae)

Cc1cc(C2=NO[C@@](c3cc(Cl)c(Cl)c(Cl)c3)(C(F)(F)F)C2)ccc1C(=O)NC1CON(S(=O)(=O)N(C)C)C1 (stereo partly drawn) [Compound A31, N-[2-(dimethylsulfamoyl)isoxazolidin-4-yl]-2-methyl-4-[(5S)-5-(3,4,5-trichlorophenyl)-5-(trifluoromethyl)-4H-isoxazol-3-yl]benzamide]
≥ 80%: mortality at 200 ppm (Thrips tabaci) | mortality at 200 ppm (Myzus persicae) | percent effect (mortality or growth inhibition) at 200 ppm (Plutella xylostella) | percent effect (mortality or growth inhibition) at 200 ppm (Diabrotica balteata) | mortality at 200 ppm (Spodoptera littoralis [1]) | percent control (mortality, anti-feedant effect or growth inhibition) at 12.5 ppm (Spodoptera littoralis [2]) | mortality at 200 ppm (Tetranychus urticae)

Cc1cc(C2=NO[C@@](c3cc(Cl)c(F)c(Cl)c3)(C(F)(F)F)C2)ccc1C(=O)NC1CON(S(C)(=O)=O)C1 (stereo partly drawn) [Compound A1, 4-[(5S)-5-(3,5-dichloro-4-fluoro-phenyl)-5-(trifluoromethyl)-4H-isoxazol-3-yl]-2-methyl-N-(2-methylsulfonylisoxazolidin-4-yl)benzamide]
≥ 80%: mortality at 200 ppm (Thrips tabaci) | mortality at 200 ppm (Myzus persicae) | percent effect (mortality or growth inhibition) at 200 ppm (Plutella xylostella) | percent effect (mortality or growth inhibition) at 200 ppm (Diabrotica balteata) | mortality at 200 ppm (Spodoptera littoralis [1]) | percent control (mortality, anti-feedant effect or growth inhibition) at 12.5 ppm (Spodoptera littoralis [2]) | mortality at 200 ppm (Tetranychus urticae)
